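These data come from cells grown in 96-well plates and exposed to compound for 48 hours at five concentrations. GI50: concentration for 50% inhibition of growth. The concentration for full growth arrest is given as TGI.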
Legend:
Assay in all cases: NCI tumour cell line growth inhibition, 48 h; in the data active = GI50 below about 0.43 µM; inactive = the rest
SK-MEL-2 melanoma = system: SK-MEL-2 melanoma
PC-3 prostate = system: PC-3 prostate
KM12 colon = system: KM12 colon
MALME-3M melanoma = system: MALME-3M melanoma
SNB-19 CNS = system: SNB-19 CNS
M14 melanoma = system: M14 melanoma
SK-MEL-28 melanoma = system: SK-MEL-28 melanoma
NCI-H23 lung = system: NCI-H23 lung
T-47D breast = system: T-47D breast
HCT-15 colon = system: HCT-15 colon
A549 NSCLC = system: A549 NSCLC
SK-OV-3 ovarian = system: SK-OV-3 ovarian
HS 578T breast = system: HS 578T breast
OVCAR-5 ovarian = system: OVCAR-5 ovarian
RPMI-8226 leukemia = system: RPMI-8226 leukemia
ACHN renal = system: ACHN renal
MDA-N = system: MDA-N
NCI-H460 lung = system: NCI-H460 lung
RXF 393 renal = system: RXF 393 renal
SK-MEL-5 melanoma = system: SK-MEL-5 melanoma
UO-31 renal = system: UO-31 renal
HOP-62 NSCLC = system: HOP-62 NSCLC
MCF7 breast = system: MCF7 breast
NCI-H226 lung = system: NCI-H226 lung
LOX IMVI melanoma = system: LOX IMVI melanoma
DU-145 prostate = system: DU-145 prostate
OVCAR-8 ovarian = system: OVCAR-8 ovarian
SR leukemia = system: SR leukemia
MOLT-4 leukemia = system: MOLT-4 leukemia
HCC-2998 colon = system: HCC-2998 colon
U251 CNS = system: U251 CNS
A498 renal = system: A498 renal
CAKI-1 renal = system: CAKI-1 renal
SF-539 CNS = system: SF-539 CNS
SF-268 CNS = system: SF-268 CNS
CCRF-CEM leukemia = system: CCRF-CEM leukemia
HCT-116 colon = system: HCT-116 colon
COLO 205 colon = system: COLO 205 colon
HL-60(TB) leukemia = system: HL-60(TB) leukemia
K-562 leukemia = system: K-562 leukemia
HT29 colon = system: HT29 colon
UACC-62 melanoma = system: UACC-62 melanoma
MDA-MB-435 = system: MDA-MB-435
SW-620 colon = system: SW-620 colon
786-0 renal = system: 786-0 renal
TK-10 renal = system: TK-10 renal
MDA-MB-231 breast = system: MDA-MB-231 breast
SNB-75 CNS = system: SNB-75 CNS
NCI-H522 lung = system: NCI-H522 lung
SF-295 CNS = system: SF-295 CNS
UACC-257 melanoma = system: UACC-257 melanoma
OVCAR-3 ovarian = system: OVCAR-3 ovarian
SN12C renal = system: SN12C renal
IGROV1 ovarian = system: IGROV1 ovarian
NCI/ADR-RES ovarian = system: NCI/ADR-RES ovarian
EKVX NSCLC = system: EKVX NSCLC
OVCAR-4 ovarian = system: OVCAR-4 ovarian
BT-549 breast = system: BT-549 breast
HOP-92 NSCLC = system: HOP-92 NSCLC

N#CC(C#N)C1CN2CCC1CC2 (stereo not drawn)
> 100 µM: TGI (SK-MEL-2 melanoma) | TGI (PC-3 prostate) | TGI (KM12 colon) | TGI (MALME-3M melanoma) | TGI (SNB-19 CNS) | TGI (SK-MEL-28 melanoma) | TGI (NCI-H23 lung) | TGI (T-47D breast) | TGI (HCT-15 colon) | TGI (A549 NSCLC) | TGI (SK-OV-3 ovarian) | TGI (HS 578T breast) | TGI (OVCAR-5 ovarian) | TGI (RPMI-8226 leukemia) | TGI (ACHN renal) | TGI (MDA-N) | TGI (NCI-H460 lung) | TGI (RXF 393 renal) | TGI (SK-MEL-5 melanoma) | TGI (UO-31 renal) | TGI (HOP-62 NSCLC) | TGI (MCF7 breast) | TGI (NCI-H226 lung) | TGI (LOX IMVI melanoma) | TGI (DU-145 prostate) | TGI (OVCAR-8 ovarian) | TGI (SR leukemia) | TGI (MOLT-4 leukemia) | TGI (HCC-2998 colon) | TGI (U251 CNS) | TGI (A498 renal) | TGI (CAKI-1 renal) | TGI (SF-539 CNS) | TGI (SF-268 CNS) | TGI (CCRF-CEM leukemia) | TGI (HCT-116 colon) | TGI (COLO 205 colon) | TGI (HL-60(TB) leukemia) | TGI (K-562 leukemia) | TGI (HT29 colon) | TGI (UACC-62 melanoma) | TGI (MDA-MB-435) | TGI (SW-620 colon) | TGI (786-0 renal) | TGI (TK-10 renal) | TGI (MDA-MB-231 breast) | TGI (SNB-75 CNS) | TGI (NCI-H522 lung) | TGI (SF-295 CNS) | TGI (UACC-257 melanoma) | TGI (SN12C renal) | TGI (IGROV1 ovarian) | TGI (NCI/ADR-RES ovarian) | TGI (EKVX NSCLC) | TGI (OVCAR-4 ovarian)
> 100000 nM: TGI (M14 melanoma) | TGI (OVCAR-3 ovarian)

COC1/C=C/OC2(C)Oc3c(C)c(O)c4c(O)c(c(C=NOC(c5ccccc5)c5ccccc5)c(O)c4c3C2=O)NC(=O)/C(C)=C/C=C/C(C)C(O)C(C)C(O)C(C)C(OC(C)=O)C1C (stereo not drawn)
8.23 µM: TGI (SF-268 CNS)
3.62 µM: TGI (CCRF-CEM leukemia)
2.96 µM: TGI (HCT-15 colon)
2010 nM: TGI (OVCAR-3 ovarian)
3.72 µM: TGI (SW-620 colon)
5.54 µM: TGI (IGROV1 ovarian)
2.08 µM: TGI (SK-MEL-28 melanoma)
1.97 µM: TGI (UACC-62 melanoma)
5.43 µM: TGI (NCI-H23 lung)
3.19 µM: TGI (RPMI-8226 leukemia)
3.57 µM: TGI (SF-295 CNS)
1.95 µM: TGI (SF-539 CNS)
3.06 µM: TGI (786-0 renal)
6.87 µM: TGI (SNB-19 CNS) | TGI (DU-145 prostate)
1.85 µM: TGI (HOP-62 NSCLC)
4.6 µM: TGI (A498 renal)
2.13 µM: TGI (HT29 colon)
3.59 µM: TGI (TK-10 renal)
2820 nM: TGI (M14 melanoma)
1.52 µM: TGI (SK-MEL-5 melanoma)
4.64 µM: TGI (OVCAR-8 ovarian)
1.74 µM: TGI (RXF 393 renal)
1.82 µM: TGI (LOX IMVI melanoma)
inactive: GI50 (SK-MEL-2 melanoma) 1050 nM | GI50 (PC-3 prostate) 1340 nM | GI50 (BT-549 breast) 1620 nM | GI50 (KM12 colon) 992 nM | GI50 (MALME-3M melanoma) 1190 nM | GI50 (SNB-19 CNS) 1890 nM | GI50 (M14 melanoma) 1180 nM | GI50 (SK-MEL-28 melanoma) 959 nM | GI50 (NCI-H23 lung) 1480 nM | GI50 (T-47D breast) 1870 nM | GI50 (HCT-15 colon) 1170 nM | GI50 (A549 NSCLC) 1580 nM | GI50 (SK-OV-3 ovarian) 1880 nM | GI50 (HOP-92 NSCLC) 972 nM | GI50 (HS 578T breast) 1500 nM | GI50 (OVCAR-5 ovarian) 984 nM | GI50 (RPMI-8226 leukemia) 1160 nM | GI50 (ACHN renal) 1170 nM | GI50 (NCI-H460 lung) 1050 nM | GI50 (RXF 393 renal) 943 nM | GI50 (SK-MEL-5 melanoma) 805 nM | GI50 (UO-31 renal) 1650 nM | GI50 (HOP-62 NSCLC) 916 nM | GI50 (MCF7 breast) 1310 nM | GI50 (NCI-H226 lung) 1740 nM | GI50 (LOX IMVI melanoma) 913 nM | GI50 (DU-145 prostate) 2050 nM | GI50 (OVCAR-8 ovarian) 1560 nM | GI50 (SR leukemia) 1940 nM | GI50 (MOLT-4 leukemia) 1800 nM | GI50 (HCC-2998 colon) 970 nM | GI50 (U251 CNS) 975 nM | GI50 (A498 renal) 1180 nM | GI50 (CAKI-1 renal) 1770 nM | GI50 (SF-539 CNS) 979 nM | GI50 (SF-268 CNS) 2250 nM | GI50 (HCT-116 colon) 970 nM | GI50 (COLO 205 colon) 1010 nM | GI50 (HL-60(TB) leukemia) 1840 nM | GI50 (K-562 leukemia) 2170 nM | GI50 (HT29 colon) 1010 nM | GI50 (UACC-62 melanoma) 935 nM | GI50 (MDA-MB-435) 1180 nM | GI50 (SW-620 colon) 1350 nM | GI50 (786-0 renal) 1290 nM | GI50 (TK-10 renal) 1140 nM | GI50 (MDA-MB-231 breast) 1350 nM | GI50 (SNB-75 CNS) 1340 nM | GI50 (NCI-H522 lung) 1180 nM | GI50 (SF-295 CNS) 1210 nM | GI50 (UACC-257 melanoma) 1140 nM | GI50 (OVCAR-3 ovarian) 1000 nM | GI50 (SN12C renal) 1310 nM | GI50 (IGROV1 ovarian) 1720 nM | GI50 (NCI/ADR-RES ovarian) 1670 nM | GI50 (EKVX NSCLC) 1820 nM | GI50 (OVCAR-4 ovarian) 1630 nM
8.03 µM: TGI (MOLT-4 leukemia)
active: GI50 (CCRF-CEM leukemia) 420 nM
2.06 µM: TGI (COLO 205 colon)
1.93 µM: TGI (HCC-2998 colon)
8.76 µM: TGI (NCI-H226 lung)
2.73 µM: TGI (ACHN renal)
5.47 µM: TGI (BT-549 breast)
1.86 µM: TGI (HCT-116 colon)
5.17 µM: TGI (HS 578T breast)
3.81 µM: TGI (MCF7 breast)
6.01 µM: TGI (OVCAR-4 ovarian)
4.15 µM: TGI (PC-3 prostate)
7.67 µM: TGI (EKVX NSCLC)
3.08 µM: TGI (UACC-257 melanoma)
1.96 µM: TGI (KM12 colon) | TGI (U251 CNS)
2.54 µM: TGI (SK-MEL-2 melanoma)
2.18 µM: TGI (NCI-H460 lung)
50 µM: TGI (K-562 leukemia)
7.74 µM: TGI (UO-31 renal)
7.15 µM: TGI (CAKI-1 renal)
3.97 µM: TGI (NCI-H522 lung)
6.19 µM: TGI (NCI/ADR-RES ovarian)
3.49 µM: TGI (MDA-MB-231 breast)
3.01 µM: TGI (MDA-MB-435)
6.05 µM: TGI (A549 NSCLC)
6.71 µM: TGI (T-47D breast)
3.53 µM: TGI (SN12C renal)
2740 nM: TGI (HOP-92 NSCLC)
5.93 µM: TGI (SR leukemia)
2.49 µM: TGI (OVCAR-5 ovarian)
5.73 µM: TGI (SNB-75 CNS)
3.83 µM: TGI (HL-60(TB) leukemia)
3.38 µM: TGI (MALME-3M melanoma)
6.67 µM: TGI (SK-OV-3 ovarian)

O=C1C(=O)N(C23CC4CC(CC(C4)C2)C3)C(=S)N1c1ccccc1
> 100000 nM: TGI (HOP-92 NSCLC)
> 100 µM: TGI (SK-MEL-2 melanoma) | TGI (PC-3 prostate) | TGI (KM12 colon) | TGI (MALME-3M melanoma) | TGI (SNB-19 CNS) | TGI (SK-MEL-28 melanoma) | TGI (NCI-H23 lung) | TGI (T-47D breast) | TGI (HCT-15 colon) | TGI (A549 NSCLC) | TGI (SK-OV-3 ovarian) | TGI (HS 578T breast) | TGI (OVCAR-5 ovarian) | TGI (RPMI-8226 leukemia) | TGI (ACHN renal) | TGI (MDA-N) | TGI (NCI-H460 lung) | TGI (RXF 393 renal) | TGI (SK-MEL-5 melanoma) | TGI (UO-31 renal) | TGI (HOP-62 NSCLC) | TGI (NCI-H226 lung) | TGI (LOX IMVI melanoma) | TGI (DU-145 prostate) | TGI (OVCAR-8 ovarian) | TGI (SR leukemia) | TGI (MOLT-4 leukemia) | TGI (HCC-2998 colon) | TGI (U251 CNS) | TGI (A498 renal) | TGI (CAKI-1 renal) | TGI (SF-539 CNS) | TGI (SF-268 CNS) | TGI (CCRF-CEM leukemia) | TGI (HCT-116 colon) | TGI (COLO 205 colon) | TGI (HL-60(TB) leukemia) | TGI (K-562 leukemia) | TGI (HT29 colon) | TGI (UACC-62 melanoma) | TGI (MDA-MB-435) | TGI (SW-620 colon) | TGI (786-0 renal) | TGI (TK-10 renal) | TGI (MDA-MB-231 breast) | TGI (SNB-75 CNS) | TGI (NCI-H522 lung) | TGI (SF-295 CNS) | TGI (UACC-257 melanoma) | TGI (SN12C renal) | TGI (IGROV1 ovarian) | TGI (NCI/ADR-RES ovarian) | TGI (EKVX NSCLC) | TGI (OVCAR-4 ovarian)

Reference: PubChem BioAssay (NCI)
